These are literature values, as cited in patent publication US20080003300A1, “Compostions containing Mg/Zn/F-CaP plus inhibitors of pro-inflammatory Cytokines (a combination of a Free-B-Ring flavonoids and a flavan) for osteoporosis prevention, therapy and treatment of bone diseases” (priority 2006, published 2008).

The target of one data set is T1, COX-2 (Ovis aries, UniProt P79208).
T1 sequence (P79208 17-603): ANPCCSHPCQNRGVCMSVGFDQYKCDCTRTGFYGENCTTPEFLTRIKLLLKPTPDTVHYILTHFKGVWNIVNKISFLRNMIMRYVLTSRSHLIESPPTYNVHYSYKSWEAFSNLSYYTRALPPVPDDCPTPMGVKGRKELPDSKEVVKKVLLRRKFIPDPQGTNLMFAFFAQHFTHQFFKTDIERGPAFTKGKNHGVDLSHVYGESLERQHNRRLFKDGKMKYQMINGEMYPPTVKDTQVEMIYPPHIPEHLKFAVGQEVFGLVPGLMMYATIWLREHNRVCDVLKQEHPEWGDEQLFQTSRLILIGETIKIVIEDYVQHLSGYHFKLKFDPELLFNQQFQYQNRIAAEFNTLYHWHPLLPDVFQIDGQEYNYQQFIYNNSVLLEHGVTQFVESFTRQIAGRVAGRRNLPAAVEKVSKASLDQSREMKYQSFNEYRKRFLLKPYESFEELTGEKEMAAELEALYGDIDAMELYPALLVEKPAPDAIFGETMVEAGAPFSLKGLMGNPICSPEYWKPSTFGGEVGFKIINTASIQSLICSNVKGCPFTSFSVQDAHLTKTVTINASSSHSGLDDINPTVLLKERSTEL
As to conditions: Noreen et al. (1998).

For data set [1], the system named is COX-2 gene transcription in human colon cancer DLD-1 cells. As to conditions: Mutoh et al. (2000).
Data set [2] deals with prostaglandin endoperoxide synthase. As to conditions: Kalkbrenner et al. (1992).

pIC50: −log10 of the molar value.

Regarding `Oc1cc(O)c2c(c1)O[C@H](c1ccc(O)c(O)c1)[C@@H](O)C2` [(+)-catechin], at COX-2, the “selectivity for COX-2” value is “no selectivity for COX-2”.

The term pIC50 denotes the negative decadic logarithm of the IC50, by convention in mol/L. On to `Oc1cc(O)c2c(c1)OC(c1ccc(O)c(O)c1)C(O)C2` (stereo not drawn) [Catechin], for which the pIC50 was 3.38 in data set [1] and 4.40 in data set [2].
